Experimental data as given in PubChem BioAssay AID330 (DTP/NCI, 2004).
“And” between values parts separate entries of the source, which are not always exact repeats. Equal values may be shown once. Toxic doses and inconclusive results are not listed. The calls were made as follows: active = survival T/C of 150% or more; inactive = T/C below 125% in these data.

Tested on: P388 leukemia ip, CD2F1 mice, survival T/C
Assay: NCI In Vivo Anticancer Drug Screen. Data for tumor model P388 Leukemia (intraperitoneal) in CD2F1 (CDF1) mice
Settings: endpoint: median survival time, higher = longer survival
Outline: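 Mice carrying the transplanted tumor received test compound or vehicle. Survival was recorded in each group, and the value is the treated-group measurement divided by that of the vehicle-treated control group.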

[1] = dose: 7.5 mg/kg/injection, schedule: Q04DX003 (ip), vehicle: saline
[2] = dose: 15.0 mg/kg/injection, schedule: Q04DX003 (ip), vehicle: saline
[3] = dose: 60.0 mg/kg/injection, schedule: Q01DX005 (ip), vehicle: Klucel (hydroxypropylcellulose) (HPC)

Measured: T/C

CN(C)CCCN1c2ccccc2Sc2ccc(Cl)cc21
inactive: dose: 1.0 mg/kg/injection, schedule: Q01DX005 (ip), vehicle: saline 99 % of control | dose: 2.0 mg/kg/injection, schedule: Q01DX005 (ip), vehicle: saline 96 % of control | dose: 4.0 mg/kg/injection, schedule: Q01DX005 (ip), vehicle: saline 104 % of control | dose: 6.25 mg/kg/injection, schedule: Q01DX009 (ip), vehicle: saline with Tween-80 95 % of control | [1] 112 % of control | dose: 8.0 mg/kg/injection, schedule: Q01DX005 (ip), vehicle: saline 106 % of control | dose: 12.5 mg/kg/injection, schedule: Q04DX003 (ip), vehicle: Klucel (hydroxypropylcellulose) (HPC) 111 % of control | dose: 12.5 mg/kg/injection, schedule: Q04DX003 (ip), vehicle: saline 108 % of control and 113 % of control and 120 % of control | [2] 120 % of control | dose: 16.0 mg/kg/injection, schedule: Q01DX005 (ip), vehicle: saline 106 % of control | dose: 25.0 mg/kg/injection, schedule: Q01DX009 (ip), vehicle: saline with Tween-80 100 % of control | dose: 25.0 mg/kg/injection, schedule: Q04DX003 (ip), vehicle: saline 111 % of control and 114 % of control and 118 % of control | dose: 32.0 mg/kg/injection, schedule: Q01DX005 (ip), vehicle: saline 116 % of control | dose: 50.0 mg/kg/injection, schedule: Q04DX003 (ip), vehicle: Klucel (hydroxypropylcellulose) (HPC) 108 % of control | dose: 50.0 mg/kg/injection, schedule: Q04DX003 (ip), vehicle: saline 105 % of control | dose: 64.0 mg/kg/injection, schedule: Q01DX005 (ip), vehicle: saline 105 % of control | dose: 100.0 mg/kg/injection, schedule: Q04DX003 (ip), vehicle: saline 99 % of control

CCN=C=NCCCN(C)C
inactive: dose: 7.5 mg/kg/injection, schedule: Q01DX009 (ip), vehicle: saline 108 % of control | [1] 102 % of control | dose: 15.0 mg/kg/injection, schedule: Q01DX009 (ip), vehicle: saline 108 % of control | [2] 99 % of control | dose: 30.0 mg/kg/injection, schedule: Q01DX009 (ip), vehicle: saline 105 % of control | dose: 30.0 mg/kg/injection, schedule: Q04DX003 (ip), vehicle: saline 98 % of control | dose: 60.0 mg/kg/injection, schedule: Q01DX009 (ip), vehicle: saline 107 % of control

CN(c1ccccc1)C1C2=C(OC(=O)C1(Cl)Cl)c1sc(-c3ccccc3)nc1CC2 (stereo unspecified)
inactive: dose: 12.5 mg/kg/injection, schedule: Q04DX002 (ip), vehicle: saline with Tween-80 93 % of control | dose: 25.0 mg/kg/injection, schedule: Q04DX002 (ip), vehicle: saline with Tween-80 97 % of control | dose: 50.0 mg/kg/injection, schedule: Q04DX002 (ip), vehicle: saline with Tween-80 93 % of control | dose: 200.0 mg/kg/injection, schedule: Q04DX002 (ip), vehicle: saline with Tween-80 86 % of control

CNC(=S)N/N=C/CCCC/C=N/NC(=S)NC
inactive: dose: 100.0 mg/kg/injection, schedule: Q01DX001 (ip), vehicle: saline 96 % of control | dose: 200.0 mg/kg/injection, schedule: Q01DX001 (ip), vehicle: saline 96 % of control | dose: 400.0 mg/kg/injection, schedule: Q01DX001 (ip), vehicle: saline 101 % of control

COC1C(O)CC(OC2C(C)OC(Oc3cc(O)c4c(O)c5c(cc4c3)C[C@@H]([C@H](OC)C(=O)[C@@H](O)[C@@H](C)O)[C@H](OC3CC(OC4CC(OC6CC(C)(O)C(O)C(C)O6)C(O)C(C)O4)C(O)C(C)O3)C5=O)CC2OC(C)=O)OC1C (stereo partly specified)
inactive: dose: 37.5 mg/kg/injection, schedule: Q01DX009 (ip), vehicle: saline 107 % of control | dose: 75.0 mg/kg/injection, schedule: Q01DX009 (ip), vehicle: saline 111 % of control | dose: 150.0 mg/kg/injection, schedule: Q01DX009 (ip), vehicle: saline 98 % of control | dose: 300.0 mg/kg/injection, schedule: Q01DX009 (ip), vehicle: saline 107 % of control

CN(C)c1ccc(Cc2c[nH]c3ccccc3c2=O)cc1
inactive: dose: 60.0 mg/kg/injection, schedule: Q01DX005 (ip), vehicle: saline with Tween-80 94 % of control | dose: 120.0 mg/kg/injection, schedule: Q01DX005 (ip), vehicle: saline with Tween-80 92 % of control | dose: 240.0 mg/kg/injection, schedule: Q01DX005 (ip), vehicle: saline with Tween-80 95 % of control

Cc1nc(N)nc2ccccc12
inactive: dose: 15.0 mg/kg/injection, schedule: Q01DX005 (ip), vehicle: Klucel (hydroxypropylcellulose) (HPC) 100 % of control | dose: 30.0 mg/kg/injection, schedule: Q01DX005 (ip), vehicle: Klucel (hydroxypropylcellulose) (HPC) 100 % of control | [3] 99 % of control

COc1ccccc1/C=N/NC(=O)Cc1ccccc1
inactive: dose: 50.0 mg/kg/injection, schedule: Q01DX009 (ip), vehicle: saline with Tween-80 101 % of control | dose: 100.0 mg/kg/injection, schedule: Q01DX009 (ip), vehicle: saline with Tween-80 91 % of control | dose: 200.0 mg/kg/injection, schedule: Q01DX009 (ip), vehicle: saline with Tween-80 93 % of control

NC(=O)C1(N(CCO)CCO)CCCC1
inactive: dose: 50.0 mg/kg/injection, schedule: Q01DX005 (ip), vehicle: saline 104 % of control | dose: 100.0 mg/kg/injection, schedule: Q01DX005 (ip), vehicle: saline 98 % of control | dose: 200.0 mg/kg/injection, schedule: Q01DX005 (ip), vehicle: saline 105 % of control

COc1ccc(/C=N/N2CN(C(C)C(=O)O)P(Nc3ncccn3)N=C2N)cc1OC (stereo unspecified)
inactive: dose: 60.0 mg/kg/injection, schedule: Q01DX005 (ip), vehicle: saline 104 % of control | dose: 120.0 mg/kg/injection, schedule: Q01DX005 (ip), vehicle: saline 103 % of control | dose: 240.0 mg/kg/injection, schedule: Q01DX005 (ip), vehicle: saline 108 % of control

CS/N=C(\c1ccccc1)N1CCOCC1
inactive: [3] 100 % of control | dose: 120.0 mg/kg/injection, schedule: Q01DX005 (ip), vehicle: Klucel (hydroxypropylcellulose) (HPC) 98 % of control

COc1ccc(/C(CC2(O)C(=O)Nc3c(C)cc(Cl)cc32)=N\NC(=O)C(=O)NN)cc1 (stereo unspecified)
inactive: dose: 50.0 mg/kg/injection, schedule: Q01DX005 (ip), vehicle: saline with Tween-80 106 % of control | dose: 100.0 mg/kg/injection, schedule: Q01DX005 (ip), vehicle: saline with Tween-80 98 % of control | dose: 200.0 mg/kg/injection, schedule: Q01DX005 (ip), vehicle: saline with Tween-80 96 % of control

C1CCN(CN2CCCCC2)CC1
inactive: dose: 50.0 mg/kg/injection, schedule: Q01DX009 (ip), vehicle: saline 104 % of control | dose: 100.0 mg/kg/injection, schedule: Q01DX009 (ip), vehicle: saline 108 % of control

COc1ccc2cc1Oc1cc3c(cc1OC)CC[N+](C)(C)C3Cc1ccc(cc1)Oc1c(OC)c(OC)cc3c1C(C2)[N+](C)(C)CC3 (stereo unspecified)
inactive: dose: 0.03 mg/kg/injection, schedule: Q01DX009 (ip), vehicle: saline 102 % of control and 106 % of control | dose: 0.07 mg/kg/injection, schedule: Q01DX009 (ip), vehicle: saline 100 % of control and 113 % of control | dose: 0.15 mg/kg/injection, schedule: Q01DX009 (ip), vehicle: saline 105 % of control and 106 % of control and 121 % of control | dose: 0.31 mg/kg/injection, schedule: Q01DX009 (ip), vehicle: saline 105 % of control and 112 % of control and 96 % of control | dose: 0.62 mg/kg/injection, schedule: Q01DX009 (ip), vehicle: saline 118 % of control

Cc1ccc2c(c1)nc1sc(C)cc(=O)n12
inactive: dose: 50.0 mg/kg/injection, schedule: Q01DX009 (ip), vehicle: Klucel (hydroxypropylcellulose) (HPC) 97 % of control | dose: 100.0 mg/kg/injection, schedule: Q01DX009 (ip), vehicle: Klucel (hydroxypropylcellulose) (HPC) 95 % of control | dose: 200.0 mg/kg/injection, schedule: Q01DX009 (ip), vehicle: Klucel (hydroxypropylcellulose) (HPC) 92 % of control

O=c1c(CSc2c(-c3ccccc3)c(=O)c2=O)c(-c2ccccc2)c1=O
inactive: dose: 100.0 mg/kg/injection, schedule: Q01DX001 (ip), vehicle: saline with Tween-80 101 % of control | dose: 200.0 mg/kg/injection, schedule: Q01DX001 (ip), vehicle: saline with Tween-80 104 % of control | dose: 400.0 mg/kg/injection, schedule: Q01DX001 (ip), vehicle: saline with Tween-80 95 % of control

[Cl][Sn]([Cl])([c]1ccccc1)[c]1ccccc1.c1ccc(-c2nnc(-c3ccccn3)nc2-c2ccccc2)cc1
inactive: dose: 0.79 mg/kg/injection, schedule: Q01DX005 (ip), vehicle: Klucel (hydroxypropylcellulose) (HPC) 101 % of control and 120 % of control | dose: 1.56 mg/kg/injection, schedule: Q01DX005 (ip), vehicle: Klucel (hydroxypropylcellulose) (HPC) 120 % of control | dose: 3.12 mg/kg/injection, schedule: Q01DX005 (ip), vehicle: Klucel (hydroxypropylcellulose) (HPC) 123 % of control
